# Source: ChEMBL document CHEMBL1201862, “PubChem BioAssay data set” (2004)
# Active and inactive are the calls of the source. No stated cut-off is given here; in the data, actives have a measured IC50 and inactives only a lower limit.
# Target: Envelope glycoprotein gp160 (Human immunodeficiency virus 1, UniProt Q6QLK5)
# Assay: inhibitors of HIV fusion peptide binding, primary screen, biochemical, uHTS, fluorescence dequenching (AID 1986)
# Envelope glycoprotein gp160, sequence (Q6QLK5 whole entry, the tested form may be a part): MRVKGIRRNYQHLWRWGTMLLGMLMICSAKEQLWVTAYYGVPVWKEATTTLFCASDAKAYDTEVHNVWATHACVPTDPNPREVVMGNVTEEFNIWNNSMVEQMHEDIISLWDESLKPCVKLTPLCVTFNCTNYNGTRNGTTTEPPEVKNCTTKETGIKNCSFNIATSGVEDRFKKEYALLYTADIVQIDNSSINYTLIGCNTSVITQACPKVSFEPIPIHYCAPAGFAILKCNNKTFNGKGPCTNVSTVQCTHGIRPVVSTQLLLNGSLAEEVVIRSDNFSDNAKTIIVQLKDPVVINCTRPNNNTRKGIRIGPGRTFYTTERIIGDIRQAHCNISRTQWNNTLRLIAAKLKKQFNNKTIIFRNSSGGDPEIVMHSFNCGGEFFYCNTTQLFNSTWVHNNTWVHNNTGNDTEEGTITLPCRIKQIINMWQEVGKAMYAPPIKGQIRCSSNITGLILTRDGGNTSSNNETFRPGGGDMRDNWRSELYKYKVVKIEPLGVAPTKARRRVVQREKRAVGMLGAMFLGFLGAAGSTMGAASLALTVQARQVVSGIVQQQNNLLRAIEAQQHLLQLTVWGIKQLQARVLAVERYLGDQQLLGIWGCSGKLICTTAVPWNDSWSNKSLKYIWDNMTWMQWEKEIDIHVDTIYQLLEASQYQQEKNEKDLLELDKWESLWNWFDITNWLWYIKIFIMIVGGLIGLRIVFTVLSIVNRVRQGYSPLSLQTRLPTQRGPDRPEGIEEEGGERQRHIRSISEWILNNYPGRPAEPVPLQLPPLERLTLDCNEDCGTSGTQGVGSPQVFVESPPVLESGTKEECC
row,Compound,IC50
1,O=C(Nc1ccccc1Cc1ccccc1)c1ccccc1NS(=O)(=O)c1ccc(Cl)s1,17 µM (active)
2,O=C(O)c1ccccc1N=Nc1c(O)[nH]c2ccc([N+](=O)[O-])cc12,23.3 µM (active)
3,CCS(=O)(=O)C1=NN2C(=N)/C(=C\c3ccc(OS(=O)(=O)c4ccccc4)c(OC)c3)C(=O)N=C2S1,17.8 µM (active)
4,COc1ccc(-c2nn(-c3ccccc3)cc2/C=C2/SC(=S)N(CCCC(=O)O)C2=O)c(C)c1,20.2 µM (active)
5,CCc1ccc(NC2=NC(=O)/C(=C/c3cc(Br)c(OCC(=O)O)c(OC)c3)S2)cc1,14.6 µM (active)
